Data reported in US9278942B2, “Non-steroidal compounds as androgen receptor modulators” (FLX Discoveries Oy, priority 2011, dated 2016).
Where two headings read alike, the source gives them in different places.

How the values were obtained:
human AR [1] = target: T1, human AR (Homo sapiens, UniProt P10275); assay: Competitive AR binding assay against [3H]-R1881 in transiently transfected COS-1 cells; conditions: compound 13.4 μM, [3H]-R1881 1.34 nM, complete inhibition equals 100%; for inhibition at 13.4 µM: read-out: Inhibition of [3H]-R1881 binding at 1.34 nM ± S.D.
T1 construct: expressed in transfected cells; host or cells: COS-1
T1 sequence (P10275 1-920): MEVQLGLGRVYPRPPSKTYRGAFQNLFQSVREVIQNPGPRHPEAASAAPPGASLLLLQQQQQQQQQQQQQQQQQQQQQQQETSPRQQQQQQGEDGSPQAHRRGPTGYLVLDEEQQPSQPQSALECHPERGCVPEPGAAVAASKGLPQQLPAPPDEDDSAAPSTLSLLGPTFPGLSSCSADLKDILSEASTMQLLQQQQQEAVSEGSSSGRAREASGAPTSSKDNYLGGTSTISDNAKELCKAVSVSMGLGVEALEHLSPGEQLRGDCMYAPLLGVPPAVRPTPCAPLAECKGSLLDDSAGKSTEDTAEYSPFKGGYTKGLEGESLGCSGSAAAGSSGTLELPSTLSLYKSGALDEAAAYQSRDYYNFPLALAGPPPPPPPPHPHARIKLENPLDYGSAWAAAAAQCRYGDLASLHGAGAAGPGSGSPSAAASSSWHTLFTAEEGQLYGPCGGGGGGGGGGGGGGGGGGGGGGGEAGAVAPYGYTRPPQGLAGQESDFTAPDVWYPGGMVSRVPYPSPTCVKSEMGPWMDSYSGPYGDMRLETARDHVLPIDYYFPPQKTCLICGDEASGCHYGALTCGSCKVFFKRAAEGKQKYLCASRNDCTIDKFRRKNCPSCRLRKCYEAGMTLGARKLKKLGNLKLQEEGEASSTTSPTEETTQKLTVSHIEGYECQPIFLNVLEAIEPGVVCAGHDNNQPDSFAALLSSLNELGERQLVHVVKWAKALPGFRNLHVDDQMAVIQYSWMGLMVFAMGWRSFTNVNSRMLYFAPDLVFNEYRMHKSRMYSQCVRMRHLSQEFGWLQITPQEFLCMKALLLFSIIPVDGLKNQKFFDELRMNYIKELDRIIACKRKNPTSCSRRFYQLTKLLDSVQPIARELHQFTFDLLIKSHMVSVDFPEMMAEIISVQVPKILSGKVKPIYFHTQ
Summary of the method: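 COS-1 cells transfected 24 h with human AR vector, then after 36 h exposed 2 h at 37° C to compound at 10000-fold molar excess over 1.34 nM [3H]-R1881. Cell-bound radioactivity counted in triplicate; result given as % inhibition of labelled R1881 binding.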

human AR [2] = target: T1, human AR; assay: AR antagonism assay: inhibition of transcriptional activation of AR (Probasin-luc reporter, COS-1 cells); assay type: cell-based; conditions: compound 10.0 μM, relative luciferase response: 100% for testosterone (no antiandrogenic effect), 0% for complete antagonism; for remaining activity at 10 µM: COS-1, 18 h, read-out: AR antagonism against 100 nM testosterone ± S.D.
Summary of the method: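 COS-1 cells transfected 24 h with human AR vector, Probasin-luc reporter and β-gal control, then exposed 18 h at 37 °C to 10 μM compound plus 100 nM testosterone. Luciferase read-out normalised to β-galactosidase activity and protein content.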

For COc1cccc(C2=NOC(Cc3ccccc3)(c3ccccc3)C2)c1 (stereo not drawn) [Example 13, 5-Benzyl-5-phenyl-3-(3-methoxyphenyl)-4,5-dihydro-isoxazole], the melting point was 94.4 to 95.2 °C.

In the case of O=[N+]([O-])c1ccc(C2=NOC(Cc3ccccc3)(c3ccccc3)C2)cc1 (stereo not drawn) [Example 17, 5-Benzyl-3-(4-nitrophenyl)-5-phenyl-4,5-dihydro-isoxazole], the melting point is reported as 158 to 159.2 °C.

Clc1ccc(C2=NOC(Cc3ccccc3)(c3ccccc3)C2)cc1 (stereo not drawn) [Example 16, 5-Benzyl-3-(4-chlorophenyl)-5-phenyl-4,5-dihydro-isoxazole] gave a melting point of 120.3 to 122.1 °C.

For COc1ccc(C2=NOC(Cc3ccccc3)(c3ccccc3)C2)cc1 (stereo not drawn) [Example 14, 5-Benzyl-3-(4-methoxyphenyl)-5-phenyl-4,5-dihydro-isoxazole], the melting point was 139.3 to 141 °C.

With COc1ccccc1C1=NOC(Cc2ccccc2)(c2ccccc2)C1 (stereo not drawn) [Example 12, 5-Benzyl-3-(2-methoxyphenyl)-5-phenyl-4,5-dihydro-isoxazole] the melting point was 109.3 to 110.2 °C.

Compound N#Cc1ccc(C2=NOC(Cc3ccccc3)(c3ccccc3)C2)cc1 (stereo not drawn) [Example 18, 4-(5-Benzyl-5-phenyl-4,5-dihydro-isoxazol-3-yl)-benzonitrile] has a melting point of 104.5 to 107 °C.

In the case of COc1ccc(C2=NOC(C)(Cc3ccccc3)C2)cc1 (stereo not drawn) [Example 3ab, 5-Benzyl-3-(4-methoxyphenyl)-5-methyl-4,5-dihydro-isoxazole], the inhibition at 13.4 µM (human AR [1]; Table 1) is reported as 49.6 ± 2% and the melting point is reported as 97.8 to 98.6 °C.

For Oc1ccc(C2=NOC(Cc3ccccc3)(c3ccccc3)C2)cc1 (stereo not drawn) [Example 80, 5-Benzyl-3-(4-hydroxyphenyl)-5-phenyl-4,5-dihydro-isoxazole], the melting point was 151.3 to 153.9 °C.

For Fc1ccccc1C1=NOC(Cc2ccccc2)(c2ccccc2)C1 (stereo not drawn) [Example 15ab, 5-Benzyl-3-(2-fluorophenyl)-5-phenyl-4,5-dihydro-isoxazole], the inhibition at 13.4 µM (human AR [1]; Table 1) was 49.5 ± 4.3% and the melting point was 134.3 to 135.2 °C.

Work on Fc1ccc(C2=NOC3CCCCCC23)cc1C(F)(F)F (stereo not drawn) [Example 39ab, 3-(4-Fluoro-3-trifluoromethyl-phenyl)-4,5,6,7,8,8a-hexahydro-3aH-cyclohepta[d]isoxazole] yielded an inhibition at 13.4 µM (human AR [1]; Table 2) of 55.7 ± 5.8% and a remaining activity at 10 µM (human AR [2]) of 43.8 ± 2.4%.

Compound CC1(Cc2ccccc2)CC(c2ccc3ccccc3c2)=NO1 (stereo not drawn) [Example 9ab, 5-Benzyl-3-naphthalen-2-yl-5-methyl-4,5-dihydro-isoxazole] has an inhibition at 13.4 µM (human AR [1]; Table 1) of 63.7 ± 1.5% and a melting point of 144.8 to 146.3 °C.

For Fc1ccc(C2=NOC3CCCCCCC23)cc1C(F)(F)F (stereo not drawn) [Example 43a, 3-(4-Fluoro-3-trifluoromethyl-phenyl)-3a,4,5,6,7,8,9,9a-octahydro-cycloocta[d]isoxazole], the “Inhibition of [3H]-R1881 binding at 1.34 nM ± S.D.” value (shortened to “Inhibition of [3H]-R1881 binding”) (human AR [1]; Table 2) was 66.3 ± 9.8% and the remaining activity at 10 µM (human AR [2]) was 57.7 ± 9.9%.

For N#Cc1ccc(C2=NOC3CCCCC23)cc1C(F)(F)F (stereo not drawn) [Example 88ab, 4-(3a,4,5,6,7,7a-Hexahydro-benzo[d]isoxazol-3-yl)-2-trifluoromethyl benzonitrile], the inhibition at 13.4 µM (human AR [1]; Table 2) was 99.2 ± 0.5% and the “AR antagonism against 100 nM testosterone ± S.D.” value (“AR antagonism” below) (human AR [2]) was 9.2 ± 1.7%.

With O=[N+]([O-])c1ccc(C2=NOC3CCCC23)cc1C(F)(F)F (single isomer, unassigned) [Example 21a, 3-(4-Nitro-3-trifluoromethyl-phenyl)-4,5,6,6a-tetrahydro-3aH-cyclopenta[d]isoxazole] the “Inhibition of [3H]-R1881 binding” value (human AR [1]; Table 3) was 69.7 ± 4.5% and the remaining activity at 10 µM (human AR [2]) was 19.2 ± 6.8%.

For N#Cc1cccc(C2=NOC3CCCCC23)c1C(F)(F)F (single isomer, unassigned) [Example 94b, 3-(3a,4,5,6,7,7a-Hexahydro-benzo[d]isoxazol-3-yl)-2-trifluoromethyl-benzonitrile], the “Inhibition of [3H]-R1881 binding” value (human AR [1]; Table 3) was 97.6 ± 0.2% and the “AR antagonism” value (human AR [2]) was 5.4 ± 1.7%.

For O=[N+]([O-])c1ccc(C2=NOC3CCCCCC23)c(C(F)(F)F)c1 (stereo not drawn) [Example 42b, 3-(4-Nitro-2-trifluoromethyl-phenyl)-4,5,6,7,8,8a-hexahydro-3aH-cyclohepta[d]isoxazole], the “Inhibition of [3H]-R1881 binding” value (human AR [1]; Table 2) was 89.5 ± 2.0%, the “Inhibition of [3H]-R1881 binding” value (human AR [1]; Table 3) was 89.3 ± 4.8% and the “AR antagonism” value (human AR [2]) was 25.5 ± 1.5%.

O=[N+]([O-])c1ccc(C2=NOC3CCCCCCC23)c(C(F)(F)F)c1 (stereo not drawn) [Example 46a, 3-(4-Nitro-2-trifluoromethyl-phenyl)-3a,4,5,6,7,8,9,9a-octahydro-cycloocta[d]isoxazole] gave an inhibition at 13.4 µM (human AR [1]; Table 3) of 86.4 ± 1.8% and a remaining activity at 10 µM (human AR [2]) of 3.1 ± 1.7%.

Compound O=[N+]([O-])c1ccc(C2=NOC3CCCCCC23)cc1C(F)(F)F (stereo not drawn) [Example 41ab, 3-(4-Nitro-3-trifluoromethyl-phenyl)-4,5,6,7,8,8a-hexahydro-3aH-cyclohepta[d]isoxazole] has an inhibition at 13.4 µM (human AR [1]; Table 2) of 97.8 ± 0.5% and a remaining activity at 10 µM (human AR [2]) of 10.1 ± 0.9%.
